From ChEMBL document CHEMBL1146967, “The geminal dimethyl analogue of Flurbiprofen as a novel Abeta42 inhibitor and potential Alzheimer's disease modifying agent” (Bioorg Med Chem Lett, 2006)
Calls of active or inactive are those of the source. The rule behind the calls is not given here.

Key:
[1] = molecular target: T1, Gamma-secretase (Homo sapiens) (UniProt Q96BI3+Q9NZ42+Q8WW43+P49768+Q92542+P49810); assay: Inhibition of beta amyloid protein 42 in SH-SY5Y cell lines overexpressing SPA4CT at 600 uM; format: functional, cell-based
Mus musculus [2] = assay: Decrease in beta amyloid protein 40 level in Tg2576 transgenic mouse at 21 mg/kg relative to control; format: functional; design: scale not given: the % may be the effect or the level left
[3] = Inhibition of beta amyloid protein 42 in HEK cell lines overexpressing APP695 at 100 uM; format: functional; conditions: Homo sapiens, HEK293
Mus musculus [4] = assay: Drug level in mouse plasma at 50 mg/kg, po; format: ADME, organism-based; design: dose 50 mg/kg, route oral; conditions: in vivo, read-out: Drug uptake
[5] = Ratio of drug level in brain against plasma in mice at 50 mg/kg, po; format: ADME, organism-based; design: dose 50 mg/kg, route oral; conditions: mouse, brain and plasma, read-out: BBR
Mus musculus [6] = assay: Drug level in mouse brain at 50 mg/kg, po; format: ADME, organism-based; design: dose 50 mg/kg, route oral; conditions: in vivo, read-out: Drug uptake
Mus musculus [7] = assay: Decrease in beta amyloid protein 42 level in Tg2576 transgenic mouse at 21 mg/kg relative to control; format: functional; design: scale not given: the % may be the effect or the level left
[8] = molecular target: T1, Gamma-secretase (Homo sapiens); assay: Inhibition of beta amyloid protein 42 in SH-SY5Y cell lines overexpressing SPA4CT at 100 uM; format: functional, cell-based
[9] = molecular target: T1, Gamma-secretase (Homo sapiens); assay: Inhibition of beta amyloid protein 42 in SH-SY5Y cell lines overexpressing SPA4CT at 30 uM; format: functional, cell-based
[10] = Inhibition of beta amyloid protein 42 in HEK cell lines overexpressing APP695 at 40 uM; format: functional; conditions: Homo sapiens, HEK293
HEK293 = assay: Inhibition of beta amyloid protein 40 in HEK cell lines overexpressing APP695; format: functional, cell-based; conditions: Homo sapiens
[11] = Clearance in mouse at 2 mg/kg, iv; format: ADME, organism-based; design: dose 2 mg/kg, route intravenous; conditions: in vivo
[12] = Cmax in rat at 2 mg/kg, po; format: ADME, organism-based; design: dose 2 mg/kg, route oral; conditions: in vivo
[13] = Tmax in monkey at 2 mg/kg, po; format: ADME, organism-based, Macaca mulatta; design: dose 2 mg/kg, route oral; conditions: rhesus monkey, in vivo
[14] = Volume of distribution in dog at 2 mg/kg, iv; format: ADME, organism-based, Canis lupus familiaris; design: dose 2 mg/kg, route intravenous; conditions: in vivo, read-out: Vdss
[15] = Half life in rat at 2 mg/kg, iv; format: ADME, organism-based; design: dose 2 mg/kg, route intravenous; conditions: in vivo
[16] = Clearance in rat at 2 mg/kg, iv; format: ADME, organism-based; design: dose 2 mg/kg, route intravenous; conditions: in vivo
[17] = Clearance in dog at 2 mg/kg, iv; format: ADME, organism-based, Canis lupus familiaris; design: dose 2 mg/kg, route intravenous; conditions: in vivo
[18] = Oral bioavailability in dog at 2 mg/kg, po; format: ADME, organism-based, Canis lupus familiaris; conditions: in vivo
[19] = Oral bioavailability in rat at 2 mg/kg, po; format: ADME, organism-based; conditions: in vivo
[20] = Oral bioavailability in monkey at 2 mg/kg, po; format: ADME, organism-based, Macaca mulatta; conditions: rhesus monkey, in vivo
[21] = Cmax in mouse at 2 mg/kg, po; format: ADME, organism-based; design: dose 2 mg/kg, route oral; conditions: in vivo
[22] = molecular target: T1, Gamma-secretase (Homo sapiens); assay: Inhibition of NOTCH receptor cleavage at 200 uM; format: functional
[23] = Volume of distribution in rat at 2 mg/kg, iv; format: ADME, organism-based; design: dose 2 mg/kg, route intravenous; conditions: in vivo, read-out: Vdss
[24] = Volume of distribution in monkey at 2 mg/kg, iv; format: ADME, organism-based, Macaca mulatta; design: dose 2 mg/kg, route intravenous; conditions: rhesus monkey, in vivo, read-out: Vdss
[25] = Clearance in monkey at 2 mg/kg, iv; format: ADME, organism-based, Macaca mulatta; design: dose 2 mg/kg, route intravenous; conditions: rhesus monkey, in vivo
[26] = Half life in dog at 2 mg/kg, iv; format: ADME, organism-based, Canis lupus familiaris; design: dose 2 mg/kg, route intravenous; conditions: in vivo
[27] = Half life in mouse at 2 mg/kg, iv; format: ADME, organism-based; design: dose 2 mg/kg, route intravenous; conditions: in vivo
[28] = molecular target: Prostaglandin G/H synthase 1 (Homo sapiens, UniProt P23219); assay: Inhibition of COX1 in human whole blood; format: functional, tissue-based
[29] = Half life in monkey at 2 mg/kg, iv; format: ADME, organism-based, Macaca mulatta; design: dose 2 mg/kg, route intravenous; conditions: rhesus monkey, in vivo
[30] = Tmax in dog at 2 mg/kg, po; format: ADME, organism-based, Canis lupus familiaris; design: dose 2 mg/kg, route oral; conditions: in vivo
[31] = Tmax in mouse at 2 mg/kg, po; format: ADME, organism-based; design: dose 2 mg/kg, route oral; conditions: in vivo
[32] = Cmax in dog at 2 mg/kg, po; format: ADME, organism-based, Canis lupus familiaris; design: dose 2 mg/kg, route oral; conditions: in vivo
[33] = Cmax in monkey at 2 mg/kg, po; format: ADME, organism-based, Macaca mulatta; design: dose 2 mg/kg, route oral; conditions: rhesus monkey, in vivo
[34] = Volume of distribution in mouse at 2 mg/kg, iv; format: ADME, organism-based; design: dose 2 mg/kg, route intravenous; conditions: in vivo, read-out: Vdss
[35] = Tmax in rat at 2 mg/kg, po; format: ADME, organism-based; design: dose 2 mg/kg, route oral; conditions: in vivo
[36] = Oral bioavailability in mouse at 2 mg/kg, po; format: ADME, organism-based; conditions: in vivo
[37] = molecular target: T1, Gamma-secretase (Homo sapiens); conditions: SH-SY5Y, 300 uM
Description: Inhibition of beta amyloid protein 42 in SH-SY5Y cell lines overexpressing SPA4CT at 300 uM

Sequence of Prostaglandin G/H synthase 1 (P23219 whole entry): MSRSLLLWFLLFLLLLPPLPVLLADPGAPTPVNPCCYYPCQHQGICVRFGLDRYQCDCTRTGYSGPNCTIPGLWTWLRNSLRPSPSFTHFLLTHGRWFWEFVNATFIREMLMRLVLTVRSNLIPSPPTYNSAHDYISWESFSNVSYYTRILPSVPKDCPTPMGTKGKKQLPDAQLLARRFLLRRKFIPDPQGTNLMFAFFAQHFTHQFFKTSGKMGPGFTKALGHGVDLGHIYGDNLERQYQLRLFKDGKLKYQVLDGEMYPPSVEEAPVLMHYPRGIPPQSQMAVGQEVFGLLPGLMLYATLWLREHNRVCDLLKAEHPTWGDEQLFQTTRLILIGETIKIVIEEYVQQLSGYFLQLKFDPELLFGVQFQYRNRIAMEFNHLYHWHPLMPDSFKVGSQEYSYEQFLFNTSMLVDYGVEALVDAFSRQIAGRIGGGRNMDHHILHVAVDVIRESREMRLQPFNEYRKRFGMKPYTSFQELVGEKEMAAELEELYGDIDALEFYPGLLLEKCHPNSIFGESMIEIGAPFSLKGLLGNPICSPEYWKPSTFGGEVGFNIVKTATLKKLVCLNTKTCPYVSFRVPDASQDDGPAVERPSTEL

SMILES: CC(C)Cc1ccc(C(C)C(=O)O)cc1 (stereo not drawn) [IBUPROFEN]
- inhibition [1]: 41%
- Activity (Mus musculus [2]): 11%
- inhibition at 100 µM [3]: 28%
- concentration (Mus musculus [4]): 592 µM
- Kp [5]: 0.03
- concentration (Mus musculus [6]): 18 µM
- Activity (Mus musculus [7]): 20%

SMILES: COc1ccc2c(c1)c(CC(=O)O)c(C)n2C(=O)c1ccc(Cl)cc1 [INDOMETHACIN]
- inhibition at 100 µM [3]: 73%
- inhibition [8]: 53%
- concentration (Mus musculus [4]): 266 µM
- Kp [5]: 0.01
- concentration (Mus musculus [6]): 3 µM

SMILES: CC1=C(CC(=O)O)c2cc(F)ccc2/C1=C\c1ccc(S(C)(=O)=O)cc1 [EXISULIND]
- inhibition [9]: 9%
- inhibition at 40 µM [10]: 0%

SMILES: COc1ccc2cc(C(C)(C)C(=O)O)ccc2c1
- inhibition (HEK293): inactive
- inhibition at 100 µM [3]: 0%

SMILES: Cc1cccc(Nc2ccccc2C(=O)O)c1C [MEFENAMIC ACID]
- concentration (Mus musculus [4]): 87 µM
- Kp [5]: 0.03
- concentration (Mus musculus [6]): 2.7 µM

SMILES: O=C(O)Cc1ccccc1Nc1c(Cl)cccc1Cl
- inhibition [8]: 17%

SMILES: COc1ccc2c(c1)c(C(C)(C)C(=O)O)c(C)n2C(=O)c1ccc(Cl)cc1
- inhibition (HEK293): inactive
- inhibition at 100 µM [3]: 2%

SMILES: CSc1ccc(/C=C2/C(C)=C(CC(=O)O)c3cc(F)ccc32)cc1 [SULINDAC SULFIDE]
- inhibition [9]: 73%
- concentration (Mus musculus [4]): 296 µM
- inhibition at 40 µM [10]: 54%
- Kp [5]: 0.006
- concentration (Mus musculus [6]): 1.7 µM

SMILES: CC(C)(C(=O)O)c1cccc(Oc2ccccc2)c1
- inhibition (HEK293): inactive
- inhibition at 100 µM [3]: 0%

SMILES: C[C@@H](C(=O)O)c1ccc(-c2ccccc2)c(F)c1 [TARENFLURBIL]
- inhibition at 100 µM [3]: 51%
- inhibition [8]: 23%
- concentration (Mus musculus [4]): 1190 µM
- Kp [5]: 0.04
- concentration (Mus musculus [6]): 41 µM

SMILES: CC(C(=O)O)c1cccc(Oc2ccccc2)c1 (stereo not drawn) [FENOPROFEN]
- concentration (Mus musculus [4]): 1360 µM
- Kp [5]: 0.03
- concentration (Mus musculus [6]): 41 µM

SMILES: CC(C)(C(=O)O)c1ccc2c(c1)[nH]c1ccc(Cl)cc12
- inhibition (HEK293): inactive
- inhibition at 100 µM [3]: 40%

SMILES: C[C@H](C(=O)O)c1ccc(-c2ccccc2)c(F)c1 [ESFLURBIPROFEN]
- inhibition at 100 µM [3]: 65%
- inhibition [8]: 37%

SMILES: CC(=O)Nc1ccc(O)cc1 [ACETAMINOPHEN]
- concentration (Mus musculus [4]): 64 µM
- Kp [5]: 0.68
- concentration (Mus musculus [6]): 43 µM

SMILES: CC(C)Cc1ccc(C(C)(C)C(=O)O)cc1
- inhibition (HEK293): inactive
- inhibition at 100 µM [3]: 3%

SMILES: CC(C)(C(=O)O)c1ccc(-c2ccccc2)c(F)c1
- clearance [11]: 0.7 mL/min/kg
- inhibition (HEK293): inactive
- Cmax [12]: 15.2 µM
- Tmax [13]: 15 min
- Vd [14]: 0.11 L/kg
- half-life [15]: 204 min
- Activity (Mus musculus [2]): 13%
- clearance [16]: 1.3 mL/min/kg
- clearance [17]: 0.28 mL/min/kg
- inhibition at 100 µM [3]: 67%
- bioavailability [18]: 87%
- bioavailability [19]: 79%
- bioavailability [20]: 90%
- Cmax [21]: 24.4 µM
- Activity [22]: inactive
- Vd [23]: 0.15 L/kg
- concentration (Mus musculus [4]): 849 µM
- Vd [24]: 0.3 L/kg
- clearance [25]: 3.8 mL/min/kg
- half-life [26]: 678 min
- half-life [27]: 276 min
- IC50 [28]: > 100 µM
- half-life [29]: 480 min
- Tmax [30]: 19.8 min
- Kp [5]: 0.02
- Tmax [31]: 15 min
- Cmax [32]: 76.4 µM
- Cmax [33]: 27.3 µM
- concentration (Mus musculus [6]): 13 µM
- Activity (Mus musculus [7]): 18%
- Vd [34]: 0.22 L/kg
- Tmax [35]: 2 h
- bioavailability [36]: 81%

SMILES: COc1ccc2cc([C@H](C)C(=O)O)ccc2c1 [NAPROXEN]
- inhibition [37]: 3%
- concentration (Mus musculus [4]): 887 µM
- Kp [5]: 0.03
- concentration (Mus musculus [6]): 27 µM
